Test results: publication PMC4138103 (PLoS ONE, 2014)
Like-named read-outs stand apart in the source and are kept apart here.

Legend:
[1] = biological target: T1, human TTR (Homo sapiens, UniProt P02766); assay: Competition with [125I]-T4 for binding to transthyretin; conditions: for Relative potency (REP), Exp 1 / Relative potency (REP), Exp 2 / Relative potency (REP), Mean: TTR binding relative to T4; for IC50: TTR binding, [125I]-T4 competition
T1 construct: purchased Sigma Aldrich
Procedure: Full dose-response curves within the range of 1–100 nM were determined for each OH-PCB metabolite.

[2] = biological target: T1, human TTR; assay: as above; conditions: @100 nM
[3] = tested on: rats; set-up: method as in PMID 8935785; conditions: dietary exposure 90 days; cited from earlier work
[4] = tested on: HepG2 cells; set-up: method as in Al-Anati et al., in preparation; conditions: ref Al-Anati et al., in preparation; cited from earlier work
[5] = read-out: IC50, Full dose-resonse experiments, Exp 1
[6] = read-out: IC50, Full dose-resonse experiments, Exp 2

Structure (SMILES): Oc1c(Cl)cc(-c2cc(Cl)c(Cl)c(Cl)c2Cl)c(Cl)c1Cl [4'-OH-PCB 172]
- Relative potency (REP), Exp 1 [1]: 5.37
- Relative potency (REP), Exp 2 [1]: 3.90
- Relative potency (REP), Mean [1]: 4.64
- IC50 ([1]; n = 2, read-out: IC50, Mean): 13 nM
- IC50 [1, 5]: 11.9 nM
- IC50 [1, 6]: 14.1 nM
- T4 displacement, Pilot experiment [2]: 95% T4 displacement @100 nM

Structure (SMILES): Clc1cc(Cl)c(-c2cc(Cl)c(Cl)cc2Cl)cc1Cl [PCB 153, 2,2′,4,4′,5,5′-hexachlorobiphenyl]
- NOAEL [3]: 0.5 mg/kg diet
- NOAEL, equivalent daily dose [3]: 34 µg/kg bw/day
- NOAEL, equivalent total dose [3]: 3.1 mg/kg bw

Structure (SMILES): Oc1c(Cl)c(Cl)cc(-c2cc(Cl)c(Cl)c(Cl)c2Cl)c1Cl [3'-OH-PCB 180]
- Relative potency (REP), Exp 1 [1]: 3.96
- Relative potency (REP), Exp 2 [1]: 2.84
- Relative potency (REP), Mean [1]: 3.40
- IC50 ([1]; n = 2, read-out: IC50, Mean): 17.8 nM
- IC50 [1, 5]: 16.2 nM
- IC50 [1, 6]: 19.4 nM
- T4 displacement, Pilot experiment [2]: 95% T4 displacement @100 nM
- Expression of DNA damage markers pChk1Ser317 and γH2AXSer319 [4]: induced

Structure (SMILES): Oc1c(Cl)cc(Cl)c(-c2cc(Cl)c(Cl)c(Cl)c2Cl)c1Cl [3' OH-PCB 182]
- Relative potency (REP), Exp 1 [1]: 3.68
- Relative potency (REP), Exp 2 [1]: 2.68
- Relative potency (REP), Mean [1]: 3.18
- IC50 ([1]; n = 2, read-out: IC50, Mean): 19 nM
- IC50 [1, 5]: 17.4 nM
- IC50 [1, 6]: 20.5 nM
- T4 displacement, Pilot experiment [2]: 93% T4 displacement @100 nM

Structure (SMILES): Oc1c(Cl)c(Cl)c(Cl)c(-c2cc(Cl)c(Cl)cc2Cl)c1Cl [5-OH-PCB 183]
- Relative potency (REP), Exp 1 [1]: 3.54
- Relative potency (REP), Exp 2 [1]: 2.61
- Relative potency (REP), Mean [1]: 3.08
- IC50 ([1]; n = 2, read-out: IC50, Mean): 19.6 nM
- IC50 [1, 5]: 18.1 nM
- IC50 [1, 6]: 21.1 nM
- T4 displacement, Pilot experiment [2]: 92% T4 displacement @100 nM
